According to patent EP1900728A1 (Genecare Research Institute Co., Ltd, priority 2005, dated 2006):
Where two headings read alike, the source gives them in different places.

Assays:
[1] = molecular target: T1, IκBα ubiquitinating enzyme (SCF complex: ROC1, Cullin1, Skp1, His-TrCP1; with E1, UbcH5b) (Homo sapiens, UniProt P62877+P63208+Q13616+Q9Y297); assay: Measurement of ubiquitinating enzyme activity (IκBα ubiquitination, time-resolved fluorescence with Eu(K)-labeled ubiquitin and XL665-labeled anti-GST antibody); format: biochemical
T1 construct: His (polyhistidine); made in house; host or cells: insect cells (baculovirus) for the SCF complex and His-E1; E. coli for His-UBCH5b
T1 sequence (Q9Y297 whole entry): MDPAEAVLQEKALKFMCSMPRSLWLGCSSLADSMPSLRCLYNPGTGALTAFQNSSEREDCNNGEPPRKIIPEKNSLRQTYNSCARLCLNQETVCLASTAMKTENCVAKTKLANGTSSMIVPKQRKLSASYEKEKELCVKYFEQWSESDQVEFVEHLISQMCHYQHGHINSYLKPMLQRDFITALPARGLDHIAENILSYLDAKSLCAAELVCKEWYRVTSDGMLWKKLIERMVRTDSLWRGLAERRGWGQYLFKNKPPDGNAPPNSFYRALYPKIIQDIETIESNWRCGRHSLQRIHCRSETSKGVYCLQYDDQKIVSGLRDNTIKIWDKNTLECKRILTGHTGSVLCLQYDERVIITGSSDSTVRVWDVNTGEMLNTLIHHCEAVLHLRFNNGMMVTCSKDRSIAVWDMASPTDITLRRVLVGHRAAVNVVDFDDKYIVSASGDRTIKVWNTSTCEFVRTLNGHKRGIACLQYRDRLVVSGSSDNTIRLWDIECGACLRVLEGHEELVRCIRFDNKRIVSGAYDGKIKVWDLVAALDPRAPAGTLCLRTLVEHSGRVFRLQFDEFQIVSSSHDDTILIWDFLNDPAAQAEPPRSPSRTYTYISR
T1 sequence (Q13616 whole entry): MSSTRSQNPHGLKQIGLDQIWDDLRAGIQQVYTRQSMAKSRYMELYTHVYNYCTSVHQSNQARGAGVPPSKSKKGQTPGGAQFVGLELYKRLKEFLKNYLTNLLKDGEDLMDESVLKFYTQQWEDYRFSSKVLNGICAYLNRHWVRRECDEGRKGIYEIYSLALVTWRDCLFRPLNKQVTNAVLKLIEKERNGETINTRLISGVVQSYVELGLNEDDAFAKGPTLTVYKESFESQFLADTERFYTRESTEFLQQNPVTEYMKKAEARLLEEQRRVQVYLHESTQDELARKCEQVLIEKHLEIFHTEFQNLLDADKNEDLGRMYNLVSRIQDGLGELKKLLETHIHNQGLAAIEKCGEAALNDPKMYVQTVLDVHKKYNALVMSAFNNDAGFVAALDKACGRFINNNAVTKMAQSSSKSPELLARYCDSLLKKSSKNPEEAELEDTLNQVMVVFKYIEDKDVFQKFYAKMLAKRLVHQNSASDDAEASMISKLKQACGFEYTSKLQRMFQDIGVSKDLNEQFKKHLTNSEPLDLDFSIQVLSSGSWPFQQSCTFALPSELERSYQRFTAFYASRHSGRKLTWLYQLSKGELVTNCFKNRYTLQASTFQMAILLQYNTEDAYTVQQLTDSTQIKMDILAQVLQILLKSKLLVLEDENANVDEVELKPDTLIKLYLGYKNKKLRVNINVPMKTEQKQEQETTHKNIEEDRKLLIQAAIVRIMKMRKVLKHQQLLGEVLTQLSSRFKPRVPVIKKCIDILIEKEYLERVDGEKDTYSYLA
T1 sequence (P63208 whole entry): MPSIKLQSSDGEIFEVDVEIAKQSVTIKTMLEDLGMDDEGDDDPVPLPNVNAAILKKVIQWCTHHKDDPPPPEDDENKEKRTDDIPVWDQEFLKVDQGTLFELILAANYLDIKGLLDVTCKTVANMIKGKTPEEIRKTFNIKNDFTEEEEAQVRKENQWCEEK
T1 sequence (P62877 whole entry): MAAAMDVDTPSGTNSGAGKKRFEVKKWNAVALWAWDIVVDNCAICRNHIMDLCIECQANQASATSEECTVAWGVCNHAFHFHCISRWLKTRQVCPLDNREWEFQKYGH
Summary of the method: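 Human SCF complex with E1 and UbcH5b ubiquitinated GST-IκBα pre-phosphorylated by IKKβ (2 mM ATP, pH 7.4, 1 h, RT), with Eu(K)-ubiquitin, 30 min RT. Stopped with EDTA, XL665 anti-GST added for 2 h; 665/620 nm TR-FRET ratio. % inhibition versus no-compound control and no-SCF blank gave IC50.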

[2] = tested on: ICAM-1 expression in HT-29 cells; assay: Measurement of ICAM-1 expressing activity (TNFα-induced ICAM-1 expression, cell ELISA); format: cell-based; conditions: Homo sapiens, Table 6, cell activity inhibition test by method (3), read-out: EVALUATION (IC50 class, inhibition of cell activity)
Summary of the method: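 HT-29 cells pretreated with compound (0.5% DMSO final) for 30 min at 37°C, then stimulated with 30 ng/mL human TNFα for 4 h. Surface ICAM-1 measured by cell ELISA on methanol-fixed cells: anti-ICAM-1 plus POD secondary, TMBZ substrate, absorbance at 450 nm.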

[3] = enzyme activity inhibition test, method (1), Table 5, read-out: EVALUATION

Row | SMILES | IC50 [1, 3] [µM] | IC50 [2] [µM] | IC50 [1] [µM]
1 | CC1=NN(c2ccccc2)C(=O)/C1=C\c1ccc(-c2ccccc2F)o1 [Compound 19] | < 10 | < 40 | –
2 | CCCCC1=NN(c2ccc(C(=O)O)cc2)C(=O)C1=Cc1ccc(O)c(OC)c1 [Compound 295] | – | 10 to 20 | 10 to 20
3 | CC1=NN(c2ccc(S(N)(=O)=O)cc2)C(=O)/C1=C\c1ccc(-c2ccccc2)cc1 [Compound 117] | < 10 | 10 to 20 | –
4 | O=C(O)c1ccc(N2N=C(C3CC3)/C(=C/c3ccc(CO)o3)C2=O)cc1 [Compound 316] | < 10 | < 10 | –
5 | COc1cc(/C=C2\C(=O)N(c3ccc(S(N)(=O)=O)cc3)N=C2C)ccc1OCC(=O)OC(C)(C)C [Compound 121] | 10 to 20 | 10 to 20 | –
6 | O=C(O)c1ccc(N2N=C(c3ccoc3)C(=Cc3ccc(N4CCN(c5ccccc5)CC4)cc3)C2=O)cc1 [Compound 433] | – | < 10 | < 10
7 | COc1ccc(C2=NN(c3ccc(C(=O)O)cc3)C(=O)/C2=C\c2ccc(CO)o2)cc1OC [Compound 280] | 10 to 20 | < 40 | –
8 | COc1ccc(C2=NN(c3ccc(C(=O)O)cc3)C(=O)/C2=C\c2ccc3ccccc3c2)cc1 [Compound 325] | < 10 | < 10 | –
9 | COCC1=NN(Cc2cccc(O)c2)C(=O)/C1=C\c1ccc(-c2ccccc2F)o1 [Compound 190] | 10 to 20 | 10 to 20 | –
10 | O=C(O)c1ccc(N2N=C(C3CC3)/C(=C/c3ccc4ccccc4c3)C2=O)cc1 [Compound 313] | < 10 | 10 to 20 | –
11 | COc1ccc(C2=NN(c3ccc(C(=O)O)cc3)C(=O)/C2=C\c2ccc3c(c2)OCCO3)cc1OC [Compound 283] | < 10 | < 10 | –
12 | CC1=NN(c2ccc(S(N)(=O)=O)cc2)C(=O)C1=Cc1ccc(O)cc1 [Compound 218] | 10 to 20 | < 40 | –
13 | CC1=NN(c2ccc(C(=O)O)cc2)C(=O)/C1=C\c1ccc(-c2cccc(Cl)c2)o1 [Compound 454] | < 10 | < 40 | –
14 | CC1=NN(c2ccc(C(=O)N3CCC(O)C3)cc2)C(=O)/C1=C\c1ccc2c(c1)OCCO2 (stereo not shown) [Compound 413] | < 10 | 10 to 20 | –
15 | O=C(O)c1ccc(N2N=C(c3ccoc3)/C(=C/c3cccc4nccnc34)C2=O)cc1 [Compound 329] | 10 to 20 | 10 to 20 | –
16 | CC1=NN(c2ccc(S(N)(=O)=O)cc2)C(=O)C1=Cc1ccc(N2CCN(C(=O)OC(C)(C)C)CC2)cc1 [Compound 179] | – | < 40 | 10 to 20

Now from value to compound, other results behind:

Row | IC50 [1, 3] [µM] | IC50 [2] [µM] | SMILES | IC50 [1] [µM]
17 | < 10 | < 40 | CC1=NN(c2cccc(C(=O)O)c2)C(=O)/C1=C\c1ccc2c(ccn2Cc2ccccc2)c1 [Compound 494] | –
18 | < 10 | < 40 | CC1=NN(c2cccc(C(=O)O)c2)C(=O)/C1=C\c1ccc2c(ccn2C(=O)c2ccco2)c1 [Compound 531] | –
19 | < 10 | < 40 | CC1=NN(c2ccc(C(=O)O)cc2)C(=O)/C1=C\c1ccc(NC(=O)c2ccccc2)cc1 [Compound 544] | –
20 | 10 to 20 | 10 to 20 | CC1=NN(c2cccc(C(=O)O)c2)C(=O)/C1=C\c1ccc(N2CCCC2)cc1 [Compound 472] | –
21 | < 10 | < 40 | CC1=NN(c2ccc(C(=O)O)cc2)C(=O)/C1=C\c1cccc(O)c1 [Compound 542] | –
22 | 10 to 20 | 10 to 20 | CC(=O)c1ccc(-c2ccc(/C=C3\C(=O)N(c4cccc(C(=O)O)c4)N=C3C)o2)cc1 [Compound 504] | –
23 | < 10 | < 10 | Cn1cc(-c2ccc(/C=C3\C(=O)N(c4ccc(C(=O)O)cc4)N=C3c3ccoc3)o2)cn1 [Compound 489] | –
